Data as given in patent US6552008B1, “Thrombopoietin mimetics” (SmithKline Beecham Corporation, priority 1999, dated 2003).

Molecular target: T1, TPO receptor (Homo sapiens, UniProt P40238)
T1 construct: expressed in transfected cells; host or cells: murine BaF3 cells (TPO-responsive line)
T1 sequence (P40238 26-635): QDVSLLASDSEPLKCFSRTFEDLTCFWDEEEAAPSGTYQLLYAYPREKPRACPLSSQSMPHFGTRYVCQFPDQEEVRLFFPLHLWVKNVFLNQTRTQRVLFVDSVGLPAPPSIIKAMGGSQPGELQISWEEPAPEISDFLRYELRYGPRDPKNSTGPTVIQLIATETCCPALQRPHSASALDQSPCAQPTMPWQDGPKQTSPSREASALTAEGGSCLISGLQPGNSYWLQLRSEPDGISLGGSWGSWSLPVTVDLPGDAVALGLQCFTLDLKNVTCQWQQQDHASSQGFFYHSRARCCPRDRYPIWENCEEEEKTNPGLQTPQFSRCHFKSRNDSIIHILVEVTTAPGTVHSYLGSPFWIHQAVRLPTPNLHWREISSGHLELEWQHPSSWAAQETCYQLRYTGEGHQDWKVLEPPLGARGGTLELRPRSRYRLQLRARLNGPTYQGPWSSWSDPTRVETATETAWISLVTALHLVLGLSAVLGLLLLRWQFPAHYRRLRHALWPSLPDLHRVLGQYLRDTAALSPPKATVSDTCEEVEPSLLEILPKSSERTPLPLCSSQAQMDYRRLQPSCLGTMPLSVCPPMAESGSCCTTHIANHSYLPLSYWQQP
Assay: Luciferase assay in TPO-responsive BaF3 cell line
Assay type: cell-based, murine
Description: Compounds of the present invention were tested for potency as mimetics of the TPO receptor in a Luciferase assay such as described in Lamb, et al., Nucleic Acids Research 23: 3283-3289 (1995) and Seidel, et al., Proc. Natl. Acad. Sci., USA 92: 3041-3045 (1995) by substituting a TPO-responsive BaF3 cell line (Vigon et al. Proc. Natl. Acad. Sci. USA 1992, 89, 5640-5644) for the HepG2 cells utilized therein. The murine BaF3 cells express TPO receptors and closely match the pattern of STAT (signal transducers and activators of transcription) activation observed in primary murine and human bone marrow cells.

SMILES: CC1=NN(c2ccc(C(=O)O)cc2)C(=O)C1N=NC1C(=O)N(c2ccc(C)c(C)c2)N=C1C (centres unmarked) [Example 1, 4-[1-(3,4-Dimethylphenyl)-3-methyl-4-(3-methyl-5-oxo-2-pyrazolin-4-ylazo)-5-oxo-2-pyrazolin-1-yl]benzoic Acid]
- EC50 (TPO-responsive BaF3 cells): 720 nM
- activity, % TPO (relative to TPO): 56 % TPO
